Experimental data as given in patent US11591631B2, “Glucose monitoring method and glucose sensor” (TOYOBO CO., LTD., priority 2017, dated 2023).
Like-named read-outs stand apart in the source and are kept apart here.

Legend:
[1] = system: FADGDH GDH-2, SEQ ID No. 2 (SEQ ID No. 1 of JP2013-116102A); experiment: Michaelis constant of GDH-2 in aqueous system (DCPIP/PMS, Lineweaver-Burk plot); format: biochemical; conditions: pH 6.5, 37° C., Lineweaver-Burk at 30, 50, 100, 200 mM, read-out: Michaelis constant (Km) for glucose
Experimental: (§1) In the present invention, the activity of glucose dehydrogenase is defined using, as 1 unit (U), the amount of enzyme that reduces 1 micromole of DCPIP per minute in the presence of a substrate according to a method using a reagent having the following formulation.
(§2) 50 mM PIPES buffer (pH: 6.5; containing 0.1% TritonX-100)
(§3) 2 mM 2,5-dichlorophenolindophenol (DCPIP) solution
(§4) First, 3 ml of reaction reagent is pre-warmed at 37° C. for 5 minutes. 0.1 ml of GDH solution is added thereto, and the resulting mixture is gently mixed. Then, the change in absorbance at 600 nm is record for 5 minutes by a spectrophotometer adjusted at 37° C. with water as a control, and the change in absorbance per minute (ΔODTEST) is measured from the straight line portion. In a blind test, a solvent that dissolves GDH is added to the reagent mixture, instead of the GDH solution, and the change in absorbance per minute (ΔODBLANK) is similarly measured. From these values, GDH activity is determined according to the following formula. […] Activity (U/ml)={−(ΔODTEST−ΔODBLANK)×3.0×dilution magnification}/{16.3×0.1×1.0} […]

[2] = system: FADGDH GDH-4, SEQ ID No. 4 (SEQ ID No. 1 of JP2015-146773A); experiment: Michaelis constant of GDH-4 in aqueous system (DCPIP/PMS, Lineweaver-Burk plot); format: biochemical; conditions: pH 6.5, 37° C.
Experimental: as §1, §2, §3, §4

[3] = system: modified FADGDH GDH-6, random mutant of FADGDH of SEQ ID No. 5; experiment: Michaelis constant of GDH-6 in aqueous system (DCPIP/PMS, Lineweaver-Burk plot); format: biochemical; conditions: pH 6.5, 37° C., Lineweaver-Burk at 30, 50, 100, 200 mM, read-out: Michaelis constant (Km) for glucose
Experimental: as §1, §2, §3, §4

[4] = system: FADGDH enzymes of Table 1 (GDH-1 to GDH-4); experiment: Km for D-glucose of the enzymes listed in Table 1; format: biochemical; conditions: read-out: Km for D-glucose; range over the enzymes listed in Table 1
Experimental: as §1
First, 3 ml of reaction reagent is pre-warmed at 37° C. for 5 minutes. 0.1 ml of GDH solution is added thereto, and the resulting mixture is gently mixed. Then, the change in absorbance at 600 nm is record for 5 minutes by a spectrophotometer adjusted at 37° C. with water as a control, and the change in absorbance per minute (ΔODTEST) is measured from the straight line portion. In a blind test, a solvent that dissolves GDH is added to the reagent mixture, instead of the GDH solution, and the change in absorbance per minute (ΔODBLANK) is similarly measured. From these values, GDH activity is determined according to the following formula. […] Activity (U/ml)={−(ΔODTEST−ΔODBLANK)×3.0×dilution magnification}/{16.3×0.1×1.0}
GDH-3 is obtained by genetically engineering and expressing GDH having an amino acid sequence of SEQ ID No. 3 (the amino acid sequence represented by SEQ ID No. 1 of JP4649993B) using the Cryptococcus sp. S-2 D11 strain (FERM BP-11482) described in JP5588578B. […]

[5] = system: FADGDH GDH-3, SEQ ID No. 3 (SEQ ID No. 1 of JP4649993B); experiment: Michaelis constant of GDH-3 in aqueous system (DCPIP/PMS, Lineweaver-Burk plot); format: biochemical, Mucor prainii; conditions: pH 6.5, 37° C., Lineweaver-Burk at 30, 50, 100, 200 mM, read-out: Michaelis constant (Km) for glucose
Experimental: as §1, §2, §3, §4

[6] = system: modified FADGDH GDH-5, random mutant of FADGDH of SEQ ID No. 5; experiment: Michaelis constant of GDH-5 in aqueous system (DCPIP/PMS, Lineweaver-Burk plot); format: biochemical; conditions: pH 6.5, 37° C., Lineweaver-Burk at 30, 50, 100, 200 mM, read-out: Michaelis constant (Km) for glucose
Experimental: as §1, §2, §3, §4

[7] = substrate: OC1OC[C@@H](O)[C@H](O)[C@H]1O; experiment: purified protein, by the assay type; conditions: other: pH 6.5, 37° C., aqueous system, Lineweaver-Burk
[8] = substrate: OC[C@H]1OC(O)[C@H](O)[C@@H](O)[C@@H]1O; experiment: purified protein, by the assay type; conditions: other: pH 6.5, 37° C., aqueous system, Lineweaver-Burk at 30, 50, 100, 200 mM

## OC[C@H]1OC(O)[C@H](O)[C@@H](O)[C@@H]1O (stereo partly drawn) [D-glucose]
[1]
  Km: 16 mM
[2]; Lineweaver-Burk at 30, 50, 100, 200 mM, read-out: Michaelis constant (Km) for glucose
  Km: 14 mM
[3]
  Km: 82 mM
[4]
  Km: 14 to 82 mM
[5]
  Km: 31 mM
[6]
  Km: 80 mM

## OC1OC[C@@H](O)[C@H](O)[C@H]1O (stereo partly drawn) [D-xylose]
[2]; Lineweaver-Burk, read-out: Michaelis constant (Km) for xylose
  Km: 82 mM

B1: FADGDH GDH-1, SEQ ID No. 1 (encoded by SEQ ID No. 8 of JP527482B) (Aspergillus oryzae) (protein)
chain: MKNTTTYDYIVVGGGTSGLVVANRLSENPDVSVLLLEAGASVFNNPDVTNANGYGLAFGSAIDWQYQSINQSYAGGKQQVLRAGKALGGTSTINGMAYTRAEDVQIDVWQKLGNEGWTWKDLLPYYLKSENLTAPTSSQVAAGAAYNPAVNGKEGPLKVGWSGSLASGNLSVALNRTFQAAGVPWVEDVNGGKMRGFNIYPSTLDVDLNVREDAARAYYFPYDDRKNLHLLENTTANRLFWKNGSAEEAIADGVEITSADGKVTRVHAKKEVIISAGALRSPLILELSGVGNPTILKKNNITPRVDLPTVGENLQDQFNNGMAGEGYGVLAGASTVTYPSISDVFGNETDSIVASLRSQLSDYAAATVKVSNGHMKQEDLERLYQLQFDLIVKDKVPIAEILFHPGGGNAVSSEFWGLLPFARGNIHISSNDPTAPAAINPNYFMFEWDGKSQAGIAKYIRKILRSAPLNKLIAKETKPGLSEIPATAADEKWVEWLKANYRSNFHPVGTAAMMPRSIGGVVDNRLRVYGTSNVRVVDASVLPFQVCGHLVSTLYAVAERASDLIKEDAKSA
[7]
  Km: 39 mM
[8]
  Km: 68 mM
